{"source": "paper PMC5668434", "about": "“Modulation of telomere protection by the PI3K/AKT pathway” (Nature Communications, 2017)", "key": {"CHA-9.3 cell line": {"system": "CHA-9.3 cell line", "assay": "Cytotoxicity in CHA-9.3 cells", "type": "cell-based, mouse", "details": "10 μM"}, "PI3Kα": {"system": "PI3Kα", "details": "reported in literature; cited from earlier work"}, "PI3Kβ": {"system": "PI3Kβ", "details": "reported in literature; cited from earlier work"}, "PI3Kδ": {"system": "PI3Kδ", "details": "reported in literature; cited from earlier work"}, "PI3Kγ": {"system": "PI3Kγ", "details": "reported in literature; cited from earlier work"}, "mTOR 1": {"system": "mTOR 1", "details": "reported in literature; cited from earlier work"}, "mTOR 2": {"system": "mTOR 2", "details": "reported in literature; cited from earlier work"}, "PI3K (p110α)": {"target": "T1, PI3K (p110α) (Homo sapiens, UniProt P42336)", "T1 construct": "purchased Cama Biosciences (sic; Carna Biosciences) #07CBS-0402A", "T1 sequence (P42336 whole entry)": "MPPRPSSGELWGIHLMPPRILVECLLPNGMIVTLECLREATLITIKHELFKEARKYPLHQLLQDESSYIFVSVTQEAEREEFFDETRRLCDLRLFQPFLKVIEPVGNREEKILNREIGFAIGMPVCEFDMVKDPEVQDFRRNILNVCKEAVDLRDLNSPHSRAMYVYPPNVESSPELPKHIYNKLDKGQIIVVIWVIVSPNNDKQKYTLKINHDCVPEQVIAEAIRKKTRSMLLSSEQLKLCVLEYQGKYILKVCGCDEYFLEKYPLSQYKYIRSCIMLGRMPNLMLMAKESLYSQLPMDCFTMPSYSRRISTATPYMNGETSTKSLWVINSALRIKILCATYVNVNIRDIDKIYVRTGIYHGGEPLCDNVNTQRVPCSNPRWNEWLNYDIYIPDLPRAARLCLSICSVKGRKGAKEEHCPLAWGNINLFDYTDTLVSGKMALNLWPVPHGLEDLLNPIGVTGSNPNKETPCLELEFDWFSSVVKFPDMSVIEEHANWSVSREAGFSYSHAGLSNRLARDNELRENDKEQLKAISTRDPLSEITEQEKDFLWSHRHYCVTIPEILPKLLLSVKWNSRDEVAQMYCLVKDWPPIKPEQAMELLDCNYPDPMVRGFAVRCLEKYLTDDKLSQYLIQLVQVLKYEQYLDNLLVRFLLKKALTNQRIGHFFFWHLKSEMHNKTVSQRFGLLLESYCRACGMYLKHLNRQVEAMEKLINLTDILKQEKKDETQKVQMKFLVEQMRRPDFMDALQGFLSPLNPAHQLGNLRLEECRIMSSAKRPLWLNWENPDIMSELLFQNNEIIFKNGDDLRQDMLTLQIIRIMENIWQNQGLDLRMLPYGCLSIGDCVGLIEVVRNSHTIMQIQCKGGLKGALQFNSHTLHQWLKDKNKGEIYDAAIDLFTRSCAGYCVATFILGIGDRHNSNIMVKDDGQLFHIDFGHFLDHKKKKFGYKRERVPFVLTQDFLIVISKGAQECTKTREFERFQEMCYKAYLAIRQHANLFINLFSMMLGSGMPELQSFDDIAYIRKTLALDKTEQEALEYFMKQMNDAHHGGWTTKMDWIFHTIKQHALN", "T1 sequence (P27986 whole entry partner)": "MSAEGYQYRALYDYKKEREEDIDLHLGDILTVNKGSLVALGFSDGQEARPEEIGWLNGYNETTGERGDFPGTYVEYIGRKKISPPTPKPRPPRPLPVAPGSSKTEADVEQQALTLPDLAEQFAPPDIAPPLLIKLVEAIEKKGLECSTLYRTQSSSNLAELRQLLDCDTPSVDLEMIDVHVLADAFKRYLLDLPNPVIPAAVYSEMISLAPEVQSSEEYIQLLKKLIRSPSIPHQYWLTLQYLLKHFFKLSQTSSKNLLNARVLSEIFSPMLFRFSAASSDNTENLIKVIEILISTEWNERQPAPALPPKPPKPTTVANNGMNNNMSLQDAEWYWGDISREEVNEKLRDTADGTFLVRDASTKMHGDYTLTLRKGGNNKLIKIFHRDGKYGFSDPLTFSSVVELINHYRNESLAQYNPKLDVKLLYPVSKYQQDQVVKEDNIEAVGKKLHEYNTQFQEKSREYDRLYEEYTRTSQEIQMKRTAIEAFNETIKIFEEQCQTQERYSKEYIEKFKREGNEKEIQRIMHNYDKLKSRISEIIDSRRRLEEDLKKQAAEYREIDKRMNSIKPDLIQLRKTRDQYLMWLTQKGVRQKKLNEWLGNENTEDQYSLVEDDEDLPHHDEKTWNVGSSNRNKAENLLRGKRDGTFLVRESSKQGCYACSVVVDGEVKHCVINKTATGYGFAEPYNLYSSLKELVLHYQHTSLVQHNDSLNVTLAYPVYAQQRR", "assay": "PI3K alpha biochemical assay (ADP Hunter Plus)", "details": "internal data; read-out: PI3Kα IC50"}, "mTOR (FRAP1)": {"target": "T2, mTOR (FRAP1) (Homo sapiens, UniProt P42345)", "T2 construct": "purchased ThermoFisher PV4753", "T2 sequence (P42345 1360-2549 limits assumed)": "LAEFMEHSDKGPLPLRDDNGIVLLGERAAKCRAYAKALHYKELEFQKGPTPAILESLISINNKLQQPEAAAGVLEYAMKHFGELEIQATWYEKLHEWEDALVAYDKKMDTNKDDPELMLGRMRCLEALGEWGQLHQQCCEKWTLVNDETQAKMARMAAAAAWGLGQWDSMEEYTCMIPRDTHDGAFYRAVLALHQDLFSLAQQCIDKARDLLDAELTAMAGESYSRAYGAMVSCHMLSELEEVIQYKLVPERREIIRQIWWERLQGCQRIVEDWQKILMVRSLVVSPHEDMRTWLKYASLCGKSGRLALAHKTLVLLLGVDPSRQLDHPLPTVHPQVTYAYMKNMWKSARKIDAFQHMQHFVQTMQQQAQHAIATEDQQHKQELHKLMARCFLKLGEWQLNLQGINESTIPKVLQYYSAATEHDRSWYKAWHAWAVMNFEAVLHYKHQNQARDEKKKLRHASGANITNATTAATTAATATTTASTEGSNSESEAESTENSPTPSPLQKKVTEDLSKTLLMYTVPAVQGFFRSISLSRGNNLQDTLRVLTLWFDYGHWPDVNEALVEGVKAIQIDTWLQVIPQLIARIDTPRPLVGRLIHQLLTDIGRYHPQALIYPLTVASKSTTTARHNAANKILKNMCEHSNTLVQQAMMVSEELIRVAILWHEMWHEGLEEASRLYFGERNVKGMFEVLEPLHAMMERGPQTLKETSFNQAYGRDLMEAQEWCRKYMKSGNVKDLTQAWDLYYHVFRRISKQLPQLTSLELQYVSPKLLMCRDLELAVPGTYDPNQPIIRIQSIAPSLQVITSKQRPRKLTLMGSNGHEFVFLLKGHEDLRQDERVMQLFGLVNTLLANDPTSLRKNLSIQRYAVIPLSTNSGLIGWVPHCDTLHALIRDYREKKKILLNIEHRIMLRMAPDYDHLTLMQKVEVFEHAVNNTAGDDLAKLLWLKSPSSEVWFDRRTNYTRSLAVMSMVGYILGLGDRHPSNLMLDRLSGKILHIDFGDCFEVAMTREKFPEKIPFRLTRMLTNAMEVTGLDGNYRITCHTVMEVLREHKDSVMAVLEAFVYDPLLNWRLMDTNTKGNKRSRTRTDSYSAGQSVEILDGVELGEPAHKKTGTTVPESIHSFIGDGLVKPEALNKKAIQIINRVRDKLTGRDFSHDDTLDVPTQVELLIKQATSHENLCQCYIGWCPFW", "assay": "mTOR biochemical assay (LanthaScreen)", "details": "internal data"}, "[1]": {"system": "p-AKT S473 in CHA-9.3 mouse lung cancer cell line", "assay": "Western blot of AKT phosphorylation at Ser473 in CHA-9.3 cells", "type": "cell-based", "details": "10 μM (GSK-2126458 1.0 μM), 24 h", "method": "These new chemical probes were prepared by replacement of a single key oxygen atom from the morpholine moiety by a methylene group, generating the piperidine derivatives ETP-51259 and ETP-50952 (Fig. 1a). To assess their PI3K cellular activity, we measured phosphorylation of residue Ser473 in AKT (p-AKT S473), a PI3K downstream target[61]–[63], by western blot analysis. To this end, we used the CHA-9.3 mouse lung cancer cell line previously generated by us[39]. […] Of note, the inhibitory activity of ETP-47037 was more prolonged than that of ETP-47228. Thus, ETP-47037 mediated p-AKT S473 inhibition was maintained during the 24-hour treatment while the ETP-47228 mediated inhibition decreased 35% after 24 h as compared to 1-h treatment but still was able to inhibit the pathway above 50% (Fig. 1c).\nFor detection of AKT, PRAS40 (T246) and pS6 in CHA9.3 cells, untreated control (DMSO) or treated with the indicated inhibitors, were lysed in RIPA buffer supplemented with 100 mM pefablock (Roche Diagnostics) and protease inhibitor cocktail (Roche Molecular Biochemicals). Proteins were resolved on 10% SDS-PAGE, and transferred to nitrocellulose membrane (Amersham^TM Protan^TM 0.2 µm nNC). Membranes were incubated with antibodies against phospho-AKT (Ser473), AKT, phospo-S6 (Ser 235/236), and S6Ribosomal from Cell Signaling, phospo-PRAS40 (Thr246) from BIOSURCE and anti α-tubulin form Sigma, overnight at 4 °C. After washing, blots were incubated with secondary antibody: Alexa Fluor 680 goat anti-rabbit IgG (Invitrogen) or anti-mouse IgG DyLight 800 conjugated (Thermo Scientific), and visualized using an Odyssey infrared imaging system (Li-Cor Biosciences)."}, "[2]": {"system": "TRF1 foci in CHA-9.3 mouse lung tumor cell line", "assay": "TRF1 foci immunofluorescence in CHA-9.3 cells", "type": "cell-based", "method": "(§1) TRF1 immunofluorescence of TRF1 was performed in lung tumor-derived cell line (CHA9.3) and in MEFs[39]. A rat monoclonal antibody against mouse TRF1 developed by the Monoclonal antibody unit at CNIO was used to detect endogenous TRF1 (1:500). GFP-TRF1 fluorescence was directly measured in cells fixed in paraformaldehyde. For quantification of TRF1 foci intensity, pictures of fixed cells were automatically acquired from each well by the Opera HCS system (Perkin Elmer). Sixty images of random fields per well, with a 40× magnification lens, were taken under non-saturating conditions. At least 1 × 10^3 cells were analyzed for each well. Briefly, images were segmented using the DAPI staining to generate masks matching cell nuclei from which-TRF1 foci were analyzed."}, "[3]": {"system": "TRF1 foci in p53−/− mouse embryo fibroblasts (MEF)", "assay": "TRF1 foci immunofluorescence in p53−/− MEFs", "type": "cell-based", "details": "10 μM, 24 h", "method": "We then checked whether PI3Kα/AKT inhibition also leads to decreased TRF1 foci in an additional cell type to CHA-9.3 cells. Thus, we used p53 ^−/− mouse embryo fibroblasts (MEF). We treated these MEFs either with the AKT inhibitor MK-2206 or with ETP-47037 at 10 μM concentration for 24 h and analyzed TRF1 foci by immunofluorescence.\nas §1"}, "CHA 9-3 cells": {"system": "CHA 9-3 cells", "assay": "Multitelomeric signals (MTS) by Q-FISH on metaphase spreads", "type": "cell-based, mouse", "details": "10 μM, 24 h", "source_text": "Trf1 abrogation is known to lead to a persistent DDR at telomeres, and to induction of telomere-induced chromosomal aberrations[28]–[30]. Trf1 genetic deletion induces the so-called multitelomeric signals (MTS), a chromosomal aberration related to increased telomere fragility during DNA replication, [29]. […] To this end, we treated CHA 9-3 cells with either DMSO, the AKT inhibitor MK-2206 (AKTi) and the PI3K inhibitors ETP-47037 or ETP-47228. For detection of MTS, we performed quantitative fluorescence in situ hybridization (Q-FISH) analysis on metaphase spreads using a telomeric probe to visualize telomeres (“Methods” section). MTS are visualized by presenting a multi-dot pattern at chromosome ends in contrast to normal telomeres that show a single dot at each chromosome end.\nLung cancer-derived cell line (CHA-9-3) and immortalized P110α ^lox/lox MEFS were treated either with 10 µM of ETP-47037, ETP-47228, or AKTi (MK-2206) for 24 h. Q-FISH in metaphase spreads was performed as described above, but increasing the concentration of formamide in both the incubation and the washes to 70%."}, "[4]": {"system": "TRF1 mRNA in CHA 9-3 lung cancer cells", "assay": "TRF1 mRNA by qPCR", "type": "cell-based, mouse", "details": "10 μM, 24 h"}, "[5]": {"system": "TRF1 protein in CHA 9-3 nuclear extracts", "assay": "Western blot of nuclear TRF1 in CHA 9-3 cells", "type": "cell-based, mouse", "details": "10 μM", "method": "(§2) Blots were incubated with the primary antibodies anti-TRF1 1:500 (home-made monoclonal Rat, CNIO; TRF-78, ABCAM, ab10579) and with anti-SMC1 1:2000 (Bethyl Laboratories #A300-055A) as loading control. For nuclear protein preparation, the Nuclear/Cytosol Fractionation Kit (K266-100, BioVision) was used according to the manufactures protocol."}, "[6]": {"system": "TRF1 protein in p53−/− MEFs nuclear extracts", "assay": "Western blot of nuclear TRF1 in p53−/− MEFs", "type": "cell-based, mouse", "details": "10 μM", "method": "as §2"}, "human AKT1": {"target": "T3, human AKT1 (Homo sapiens, UniProt P31749)", "T3 construct": "purchased ProQinase 1379-0000-2", "T3 sequence (P31749 whole entry)": "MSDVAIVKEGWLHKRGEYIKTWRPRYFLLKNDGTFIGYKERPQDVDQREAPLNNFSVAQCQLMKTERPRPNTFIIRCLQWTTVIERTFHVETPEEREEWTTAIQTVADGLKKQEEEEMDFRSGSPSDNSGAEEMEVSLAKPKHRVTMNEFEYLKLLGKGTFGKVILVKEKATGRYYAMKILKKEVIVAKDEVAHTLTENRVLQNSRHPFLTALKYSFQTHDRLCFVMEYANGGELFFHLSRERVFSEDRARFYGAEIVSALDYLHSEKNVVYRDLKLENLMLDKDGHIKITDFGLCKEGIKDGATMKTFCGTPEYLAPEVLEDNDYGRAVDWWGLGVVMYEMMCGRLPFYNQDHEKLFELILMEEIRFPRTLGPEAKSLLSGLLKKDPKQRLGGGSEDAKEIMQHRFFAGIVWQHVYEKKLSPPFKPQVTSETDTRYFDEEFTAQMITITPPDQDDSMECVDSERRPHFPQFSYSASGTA", "assay": "In vitro TRF1 phosphorylation by AKT1", "type": "biochemical", "details": "MK-2206 25 μM", "method": "To address whether TRF1 is a direct substrate of AKT, affinity purified GST-TRF1 was incubated with purified human AKT1 (1379-0000-2, ProQinase) in the presence of γ-^32ATP. As positive control, a GSK3 (14-27) peptide (0349-0000-5, prokinase) was also used as substrate. AKT1 yielded a TRF1 phosphorylation signal after incubation with purified GST-TRF1 during 1 h, which was decreased in the presence of AKT inhibitor (see asterisk in Fig. 5a, left). AKT1 also yielded a phosphorylation signal in the positive control peptide GSK3 (14-27) that was reduced in the presence of AKT inhibitor (Fig. 5a, right). An autophospholyration activity of AKT1 was detected after 1 h of incubation and this activity was reduced in the presence of AKT inhibitor (Fig. 5a). Together, these findings indicate that TRF1 is a direct substrate of AKT1.\nOne μg of purified GST-TRF1 was incubated with 0.2 μg of human GST-AKT1 (1379-0000-2, ProQinase) with or without AKT inhibitor (MK-2206, 25 μM) in kinase buffer (50 mM Hepes pH 7.9, 100 μM ATP, 10 mM MgCl2, 5 mM DTT) containing 5 μCi [γ-^32-P]ATP in a total volume of 25 μl. The peptide RBER-GSK3(14-27) (0349-0000-5, ProQinase) (100 ng) was used as positive control. The reactions were performed at 30 °C for […] and stopped by addition of Lamely buffer (6×). Samples were resolved in 4–12% SDS-PAGE gels and subjected to autoradiography."}, "Akt1": {"system": "Akt1", "design": "method as in earlier work", "details": "reported in literature; read-out: Reported data IC50 Akt 1; cited from earlier work"}, "Akt2": {"system": "Akt2", "design": "method as in earlier work", "details": "reported in literature; read-out: Reported data IC50 Akt 2; cited from earlier work"}, "Akt3": {"system": "Akt3", "design": "method as in earlier work", "details": "reported in literature; read-out: Reported data IC50 Akt 3; cited from earlier work"}}, "note": "pIC50: −log10 of the molar value.", "data": [{"compound": "COc1ncc(-c2ccc3nccc(-c4ccnnc4)c3c2)cc1NS(=O)(=O)c1ccc(F)cc1F", "note": "[GSK-2126458]", "values": [{"measurement": "Cytotoxicity", "setting": "CHA-9.3 cell line", "result": "high cytotoxicity"}, {"measurement": "pIC50", "setting": "PI3Kα", "result": "[…]"}, {"measurement": "pIC50", "setting": "PI3Kβ", "result": "[…]"}, {"measurement": "pIC50", "setting": "PI3Kδ", "result": "[…]"}, {"measurement": "pIC50", "setting": "PI3Kγ", "result": "[…]"}, {"measurement": "pIC50", "setting": "mTOR 1", "result": 9.74}, {"measurement": "pIC50", "setting": "mTOR 2", "result": 9.52}]}, {"compound": "NC1(c2ccc(-c3nc4ccn5c(=O)[nH]nc5c4cc3-c3ccccc3)cc2)CCC1", "note": "[MK-2206, reference compound]", "values": [{"measurement": "pIC50", "setting": "PI3K (p110α)", "result": 7.46}, {"measurement": "pIC50", "setting": "mTOR (FRAP1)", "result": "< 5.00"}, {"measurement": "Phosphorylation of AKT (p-AKT S473) (in words)", "setting": "[1]", "result": "strong inhibition"}, {"measurement": "Inhibition of TRF1 foci (in words)", "setting": "[2]; 10 μM (GSK-2126458 1.0 μM), 24 h, CHA-9.3", "result": "effectively inhibited TRF1 foci"}, {"measurement": "TRF1 levels as compared to bortezomib/DMSO-treated control cells", "setting": "[2]; 10 μM plus bortezomib 50 nM, CHA 9-3", "result": "significantly lower"}, {"measurement": "Reduction in TRF1 foci intensity", "setting": "[3]", "result": 22, "unit": "%"}, {"measurement": "Frequency of MTS events per metaphase compared to DMSO", "setting": "CHA 9-3 cells", "result": "significantly increased"}, {"measurement": "TRF1 mRNA levels", "setting": "[4]", "result": "None of the inhibitors significantly affected"}, {"measurement": "TRF1 protein levels in nuclear extracts", "setting": "[5]", "result": "significantly decreased"}, {"measurement": "Total nuclear TRF1 levels compared to DMSO", "setting": "[6]", "result": "decreased"}, {"measurement": "Autophosphorylation activity of AKT1", "setting": "human AKT1; 1 h", "result": "reduced"}, {"measurement": "Phosphorylation signal of control peptide GSK3 (14-27) by AKT1", "setting": "human AKT1", "result": "reduced"}, {"measurement": "TRF1 phosphorylation signal by AKT1", "setting": "human AKT1; purified GST-TRF1, 1 h", "result": "decreased"}, {"measurement": "pIC50", "setting": "Akt1", "result": 8.10}, {"measurement": "pIC50", "setting": "Akt2", "result": 7.92}, {"measurement": "pIC50", "setting": "Akt3", "result": 7.19}]}]}
